# pIC50: −log10 of the molar value.
# Biological target: T1, BRD4 BD1 (Homo sapiens, UniProt O60885)
# T1 construct: Protein BRD4 BD1 used in the assay was purchased from Active Motif (cat. 31380); purchased Active Motif 31380
# Experiment: HTRF in vitro enzyme activity assay, inhibition of BRD4 BD1 binding to acetylated H4 peptide
# Settings: IC50 values of the compounds against BRD4 BD1 binding; class symbols A/B/C
# Summary of the method: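 Recombinant human BRD4 BD1 (30 nM final) incubated with compound and biotinylated tetra-acetylated H4(1-21) peptide, 30 min at 37 °C; 5-point 1:5 dilution series, 0.1% DMSO final. HTRF read after 3 h at RT with SA-XL665 and Eu(K)-labelled antibody; IC50 derived.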
row,Structure (SMILES),pIC50
1,"CCN1C(=O)[C@@H](C)Oc2nc(N3C(=O)c4ccccc4C3c3ccc(Cl)cc3)ccc21 (stereo partly drawn) [Example A109-P3, (R)-6-(1-(4-chlorophenyl)-3-oxoisoindolin-2-yl)-1-ethyl-3-methyl-1H-pyrido[2,3-B][1,4]oxazin-2-(3H)-one]",7.00 to 8.00
2,"CC(=O)N1c2nc(N3C(=O)CCC3c3ccc(F)cc3)ccc2N(C)C(=O)[C@H]1C (single isomer, unassigned) [Example A17-P1]",6.00 to 7.00
3,"CC1C(=O)N(C)c2ccc(N3C(=O)N(C)CC3c3ccccc3)nc2N1C1CC1 (single isomer, unassigned) [Example A19-P3, 4-cyclopropyl-1,3-dimethyl-6-(3-methyl-2-oxo-5-phenylimidazolidin-1-yl)-3,4-dihydropyrido[2,3-b]pyrazin-2(1H)-one]",≥ 8.00
4,"CC1C(=O)N(C)c2ccc(N3C(=O)c4ccccc4C3c3cccnc3)nc2N1C1(C)CC1 (centres unmarked) [Example A47-P4, 1,3-dimethyl-4-(1-methylcyclopropyl)-6-(1-oxo-3-(pyridin-3-yl)isoindolin-2-yl)-3,4-dihydropyrido [2,3-b]pyrazin-2(1H)-one]",≥ 8.00
5,"CCN1C(=O)C(C)N(C2CCCC2)c2nc(N3C(=O)c4ccccc4C3c3ccc(F)cc3)ccc21 (racemic) [Example A24, 4-cyclopentyl-1-ethyl-6-(1-(4-fluorophenyl)-3-oxoisoindolin-2-yl)-3-methyl-3,4-dihydropyrido[2,3-b]pyrazin-2(1H)-one]",7.00 to 8.00
6,"CC1C(=O)N(C)c2ccc(N3C(=O)c4c(cccc4S(C)(=O)=O)C3c3cccnc3)nc2N1C1CC1 (single isomer, unassigned) [Example A64-P3, 4-cyclopropyl-1,3-dimethyl-6-(4-(methanesulfonyl)-3-oxo-1-(pyridin-3-yl)isoindolin-2-yl)-3,4-dihydropyrido[2,3-b]pyrazin-2(1H)-one]",≥ 8.00
7,"C[C@@H]1C(=O)N(C)c2cnc(N3C(=O)c4ccccc4C3c3ccc(F)nc3)nc2N1C (single isomer, unassigned) [Example A91-P2]",≥ 8.00
8,"CCN1C(=O)[C@@H](C)Oc2nc(N3C(=O)c4ccccc4C3c3cccnc3)ccc21 (stereo partly drawn) [Example A108-P3, (R)-1-ethyl-3-methyl-6-(1-oxo-3-(pyridin-3-yl)isoindolin-2-yl)-1H-pyrido[2,3-B][1,4]oxazin-2(3H)-one]",7.00 to 8.00
9,"CC1C(=O)N(C)c2ccc(N3C(=O)c4ccccc4C3c3cccnc3)nc2N1CC(F)(F)F (centres unmarked) [Example A59-P2, 1,3-dimethyl-6-(1-oxo-3-(pyridin-3-yl)isoindolin-2-yl)-4-(2,2,2-trifluoroethyl)-3,4-dihydropyrido[2,3-b]pyrazin-2(1H)-one]",≥ 8.00
10,"C[C@@H]1C(=O)N(C)c2cnc(N3C(=O)c4cc(F)ccc4C3c3cccnc3)nc2N1C (single isomer, unassigned) [Example A97-P1]",≥ 8.00
11,"CC1Oc2nc(N3C(=O)c4ccccc4C3c3ccc(F)cc3)ccc2N(C)C1=O (centres unmarked) [Example A39-P1, 6-(1-(4-fluorophenyl)-3-oxoisoindolin-2-yl)-1,3-dimethyl-1H-pyrido[2,3-b][1,4]oxazin-2(3H)-one]",≥ 8.00
12,"CCN1C(=O)C(C)N(C2CC2)c2nc(N3C(=O)c4ccccc4C3c3cccnc3)ccc21 (centres unmarked) [Example A49-P4, 4-cyclopropyl-1-ethyl-3-methyl-6-(1-oxo-3-(pyridin-3-yl)isoindolin-2-yl)-3,4-dihydropyrido [2,3-b]pyrazin-2-(1H)-one]",≥ 8.00
13,"C[C@H]1Oc2nc(N3C(=O)c4ccccc4C3c3cccnc3)c(F)cc2N(C)C1=O (single isomer, unassigned) [Example A124-P1]",7.00 to 8.00
14,"C[C@H]1Oc2nc(N3C(=O)c4ccccc4C3c3ccccn3)ccc2N(C)C1=O (single isomer, unassigned) [Example A121-P1]",≥ 8.00
15,"CC1C(=O)N(C)c2ccc(N3C(=O)c4ccccc4C3(O)c3ccc(Cl)cc3)nc2N1C1CC1 (racemic) [Example A30, 6-(1-(4-chlorophenyl)-1-hydroxy-3-oxoisoindolin-2-yl)-4-cyclopropyl-1,3-dimethyl-3,4-dihydropyrido [3,2-b]pyrazin-2(H)-one]",7.00 to 8.00
16,"C[C@@H]1C(=O)N(C)c2ccc(N3C(=O)CCC3c3ccccc3)nc2N1C (single isomer, unassigned) [Example A4-P2]",≥ 8.00
17,"CC1C(=O)N(C)c2cnc(-n3c(=O)c4ccccc4n3-c3ccc(Cl)cc3)nc2N1C1CC1 (single isomer, unassigned) [Compound A89-P3]",≥ 8.00
18,"CC1C(=O)N(C)c2ccc(N3C(=O)c4c(cccc4C(C)(C)O)C3c3ccc(F)cc3)nc2N1C1CC1 (single isomer, unassigned) [Example A79-P4, 4-cyclopropyl-6-(1-(4-fluorophenyl)-4-(2-hydroxyprop-2-yl)-3-oxoisoindolin-2-yl)-1,3-dimethyl-3,4-dihydropyrido[2,3-b]pyrazin-2(1H)-one]",≥ 8.00

row,Structure (SMILES),pIC50
1,"CC1Oc2nc(-n3c(=O)c4ccccc4n3-c3ccc(Cl)cc3)ccc2N(C)C1=O (centres unmarked) [Example A32-P3, 6-(1-(4-chlorophenyl)-3-oxo-1,3-dihydro-2H-indazol-2-yl)-1,3-dimethyl-1H-pyrido[2,3-B][1,4]oxazin-2(3H)-one]",7.00 to 8.00
2,"Cc1ccc(-n2c3ccccc3c(=O)n2-c2ccc3c(n2)N(C2CC2)C(C)C(=O)N3C)cn1 (single isomer, unassigned) [Example A50-P3, 6-(1-(6-methyl-pyridin-3-yl)-3-oxo-1,3-dihydro-2H-indazol-2-yl)-4-cyclopropyl-1-methyl-3-methyl-3,4-dihydropyridine [2,3-b]pyrazin-2(1H)-one]",≥ 8.00
3,"CC1C(=O)N(C)c2ccc(N3C(=O)CCC3c3ccc(Cl)cc3)nc2N1C1CC1 (centres unmarked) [Example A3-P3, 4-cyclopropyl-6-(2-(4-chlorophenyl)-5-oxopyrrolidin-1-yl)-1,3-dimethyl-3,4-dihydropyrido[2,3-b]pyrazin-2(1H)-one]",≥ 8.00
4,"C[C@H]1Oc2nc(N3C(=O)c4ccccc4C3c3ccc(F)cn3)ccc2N(C)C1=O (single isomer, unassigned) [Example A110-P1]",≥ 8.00
5,"CC1C(=O)N(C)c2cnc(N3C(=O)c4ccccc4C3c3ccc(F)nc3)nc2N1C1CC1 (single isomer, unassigned) [Example A101-P3, 8-cyclopropyl-2-(1-(6-fluoropyridin-3-yl)-3-oxoisoindol-2-yl)-5,7-dimethyl-7,8-dihydropteridin-6(5H)-one]",≥ 8.00
6,"CC1C(=O)N(C)c2ccc(N3C(=O)CCC3c3ccccc3)nc2N1C1CC1 (single isomer, unassigned) [Example A1-P2-2, 4-cyclopropyl-1,3-dimethyl-6-(2-oxo-5-phenyl-pyrrolidin-1-yl)-3,4-dihydropyrido[2,3-b]pyrazin-2(1H)-one]",≥ 8.00
7,"CC1C(=O)N(C)c2ccc(N3C(=O)c4ccccc4C3c3ccc(Cl)cc3)nc2N1C1COC1 (centres unmarked) [Example A31-P3, 6-(1-(4-chlorophenyl)-3-oxoisoindolin-2-yl)-1,3-dimethyl-4-(oxacyclebutan-3-yl)-3,4-dihydropyrido [3,2-B]pyrazin-2(1H)-one]",≥ 8.00
8,"CC1C(=O)N(C)c2ccc(N3C(=O)c4ccccc4C3c3ccc(F)cc3)nc2N1C1CCCC1 (racemic) [Example A38, 4-cyclopentyl-6-(1-(4-fluorophenyl)-3-oxoisoindolin-2-yl)-1,3-dimethyl-3,4-dihydropyrido [2,3-b]pyrazin-2(1H)-one]",7.00 to 8.00
9,"CC1C(=O)N(C)c2ccc(N3C(=O)c4ccccc4C3c3ccc(F)cc3)nc2N1C1CCCC1 (racemic) [Example A38-P2, 4-cyclopentyl-6-(1-(4-fluorophenyl)-3-oxoisoindolin-2-yl)-1,3-dimethyl-3,4-dihydropyrido [2,3-b]pyrazin-2(1H)-one]",≥ 8.00
10,"CC1C(=O)N(C)c2ccc(N3C(=O)c4ccccc4C3Cc3ccccc3)nc2N1C1CC1 (racemic) [Example A37, 4-cyclopropyl-6-(1-benzyl-3-oxoisoindolin-2-yl)-1,3-dimethyl-3,4-dihydropyrido [2,3-b]pyrazin-2(1H)-one]",6.00 to 7.00
11,"CC1C(=O)N(C)c2ccc(N3C(=O)c4c(cccc4[S+](C)[O-])C3c3cccnc3)nc2N1C1CC1 (single isomer, unassigned) [Example A60-P3]",≥ 8.00
12,"C[C@@H]1C(=O)N(C)c2ccc(N3C(=O)CCC3c3ccccc3)nc2N1C1CCOCC1 (single isomer, unassigned) [Example A5-P1]",≥ 8.00
13,"CC1C(=O)N(C)c2ccc(N3C(=O)c4ccccc4C3c3ccc(Cl)cc3)nc2N1CCO (racemic) [Example A34, 6-(1-(4-chlorophenyl)-3-oxoisoindolin-2-yl)-4-(2-hydroxyethyl)-1,3-dimethyl-3,4-dihydropyrido [2,3-b]pyrazin-2(1H)-one]",≥ 8.00
14,"C[C@H]1Oc2nc(N3C(=O)c4c(cccc4[S+](C)[O-])C3c3cccnc3)ccc2N(C)C1=O (single isomer, unassigned) [Example A127-P1]",≥ 8.00
15,"C[C@H]1Nc2nc(N3C(=O)CCC3c3ccccc3)ccc2N(C)C1=O (single isomer, unassigned) [Example A20-P1]",7.00 to 8.00
16,"CNC(=O)c1cccc2c1C(=O)N(c1ccc3c(n1)N(C)C(C)C(=O)N3C)C2c1ccccc1 (single isomer, unassigned) [Example A88-P4, N-methyl-3-oxo-1-phenyl-2-(1,3,4-trimethyl-2-oxo-1,2,3,4-tetrahydropyrido[2,3-b]pyrazin-6-yl)isoindoline-4-carboxamide]",≥ 8.00
17,"CC1Oc2cc(N3C(=O)c4ccccc4C3c3cccnc3)cc(F)c2N(C)C1=O (single isomer, unassigned) [Example A107-P3, 1-methyl-3-methyl-6-(1-oxo-3-(pyridin-3-yl)isoindolin-2-yl)-8-fluoro-1H-benzo[2,3-B][1,4]oxazin-2(3H)-one]",7.00 to 8.00
